Data: patent US20240109900A1, “AZABICYCLIC SHP2 INHIBITORS” (IRBM S.P.A., priority 2021, published 2024)

How the values were obtained:
[1] = molecular target: SHP-2 enzyme (Met1-Leu525) (Homo sapiens (Human), UniProt Q06124); test: SHP2 inhibition enzymatic assay; assay type: biochemical; conditions: 0.5 nM SHP-2 activated by 500 nM IRS1 peptide, 75 μM DiFMUP substrate; read-out: SHP2wt-IC50
Summary of the method: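 Compounds were preincubated 30 min with 0.5 nM SHP-2 (Met1-Leu525) plus 500 nM IRS1 activating peptide (pH 7.2 HEPES, 5 mM DTT), then 75 μM DiFMUP substrate reacted 30 min at room temperature. After bpV quench, DiFMUP fluorescence gave % inhibition; four-parameter logistic fit yielded IC50.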

[2] = tested on: ERK phosphorylation in KYSE-520 cells; test: Phospho-ERK cellular assay; assay type: cell-based; conditions: Homo sapiens, KYSE-520, 2 h, KYSE-520 cells, 2 h at 37° C., phospho-ERK1/2 (Thr202/Tyr204) TR-FRET; read-out: PERK IC50
Summary of the method: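 TR-FRET read-out of ERK1/2 Thr202/Tyr204 phosphorylation was taken after overnight antibody incubation at room temperature. Before that, KYSE-520 cells were treated 2 h at 37 °C with compound dilutions and lysed 30 min. Percent inhibition relative to vehicle and cell-free wells was fitted four-parametrically to give IC50.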

Sequence of SHP-2 enzyme (Met1-Leu525) (Q06124 1-525): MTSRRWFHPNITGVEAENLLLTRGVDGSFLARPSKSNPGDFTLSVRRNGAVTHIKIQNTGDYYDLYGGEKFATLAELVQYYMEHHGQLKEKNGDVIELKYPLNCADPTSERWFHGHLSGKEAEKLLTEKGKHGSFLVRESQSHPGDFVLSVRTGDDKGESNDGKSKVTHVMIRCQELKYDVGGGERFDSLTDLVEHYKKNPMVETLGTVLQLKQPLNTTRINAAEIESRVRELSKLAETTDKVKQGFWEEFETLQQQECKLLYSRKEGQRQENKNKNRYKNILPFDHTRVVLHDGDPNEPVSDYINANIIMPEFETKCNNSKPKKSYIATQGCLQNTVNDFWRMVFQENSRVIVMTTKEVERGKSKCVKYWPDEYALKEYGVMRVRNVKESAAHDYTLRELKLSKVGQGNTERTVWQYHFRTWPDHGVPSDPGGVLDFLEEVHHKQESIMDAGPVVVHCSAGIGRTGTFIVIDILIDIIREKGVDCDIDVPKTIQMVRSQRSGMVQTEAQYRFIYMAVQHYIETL

| IC50 [1] | IC50 [2] | SMILES |
| --- | --- | --- |
| < 0.5 µM | > 5 µM | NC[C@]1(c2ccccc2F)[C@@H]2CCN(c3cnc4c(-c5ccc(S(N)(=O)=O)cc5Cl)n[nH]c4n3)C[C@@H]21 [Example 346, 4-(6-((1S,6R,7R)-7-(aminomethyl)-7-(2-fluorophenyl)-3-azabicyclo[4.1.0]heptan-3-yl)-1H-pyrazolo[3,4-b]pyrazin-3-yl)-3-chlorobenzenesulfonamide] |
| < 0.5 µM | > 5 µM | Cn1cc(-c2n[nH]c3nc(N4CC[C@@H]5[C@H](C4)[C@@]5(CN)c4ccccc4F)cnc23)cn1 [Example 347, ((1S,6R,7R)-7-(2-fluorophenyl)-3-(3-(1-methyl-1H-pyrazol-4-yl)-1H-pyrazolo[3,4-b]pyrazin-6-yl)-3-azabicyclo[4.1.0]heptan-7-yl)methanamine] |
| < 0.5 µM | < 1 µM | Cc1c(-c2n[nH]c3nc(N4CC[C@@H]5[C@H](C4)[C@@]5(CN)c4ccccc4F)cnc23)cnn1C [Example 348, ((1S,6R,7R)-3-(3-(1,5-dimethyl-1H-pyrazol-4-yl)-1H-pyrazolo[3,4-b]pyrazin-6-yl)-7-(2-fluorophenyl)-3-azabicyclo[4.1.0]heptan-7-yl)methanamine] |
| < 0.5 µM | < 1 µM | Cc1nc2c(Cl)c(-c3n[nH]c4nc(N5CC[C@@H]6[C@H](C5)[C@@]6(CN)c5ccccc5F)cnc34)ccc2n1C [Example 349, ((1S,6R,7R)-3-(3-(4-chloro-1,2-dimethyl-1H-benzo[d]imidazol-5-yl)-1H-pyrazolo[3,4-b]pyrazin-6-yl)-7-(2-fluorophenyl)-3-azabicyclo[4.1.0]heptan-7-yl)methanamine] |
| < 0.5 µM | < 1 µM | CN1Cc2c(ccc(-c3n[nH]c4nc(N5CC[C@@H]6[C@H](C5)[C@@]6(CN)c5ccccc5F)cnc34)c2Cl)C1=O [Example 350, 5-(6-((1S,6R,7R)-7-(aminomethyl)-7-(2-fluorophenyl)-3-azabicyclo[4.1.0]heptan-3-yl)-1H-pyrazolo[3,4-b]pyrazin-3-yl)-4-chloro-2-methylisoindolin-1-one] |
| < 0.5 µM | < 1 µM | NC[C@]1(c2ccccc2F)[C@@H]2CCN(c3cnc4c(-c5ccc6c(=O)n(CCO)ccc6c5F)n[nH]c4n3)C[C@@H]21 [Example 351, 6-(6-((1S,6R,7R)-7-(aminomethyl)-7-(2-fluorophenyl)-3-azabicyclo[4.1.0]heptan-3-yl)-1H-pyrazolo[3,4-b]pyrazin-3-yl)-5-fluoro-2-(2-hydroxyethyl)isoquinolin-1(2H)-one] |
| < 0.5 µM | < 1 µM | Cn1c(=O)oc2cc(-c3n[nH]c4nc(N5CC[C@@H]6[C@H](C5)[C@@]6(CN)c5ccccc5F)cnc34)ccc21 [Example 353, 6-(6-((1S,6R,7R)-7-(aminomethyl)-7-(2-fluorophenyl)-3-azabicyclo[4.1.0]heptan-3-yl)-1H-pyrazolo[3,4-b]pyrazin-3-yl)-3-methylbenzo[d]oxazol-2(3H)-one] |
| < 0.5 µM | < 1 µM | NC[C@]1(c2ccccc2F)[C@@H]2CCN(c3cnc4c(-c5cc(F)c(O)cc5F)n[nH]c4n3)C[C@@H]21 [Example 354, 4-(6-((1S,6R,7R)-7-(aminomethyl)-7-(2-fluorophenyl)-3-azabicyclo[4.1.0]heptan-3-yl)-1H-pyrazolo[3,4-b]pyrazin-3-yl)-2,5-difluorophenol] |
| < 0.5 µM | < 1 µM | NC[C@]1(c2ccccc2F)[C@@H]2CCN(c3cnc4c(-c5ccc(F)c(O)c5F)n[nH]c4n3)C[C@@H]21 [Example 355, 3-(6-((1S,6R,7R)-7-(aminomethyl)-7-(2-fluorophenyl)-3-azabicyclo[4.1.0]heptan-3-yl)-1H-pyrazolo[3,4-b]pyrazin-3-yl)-2,6-difluorophenol] |
| < 0.5 µM | > 5 µM | CN(C#N)C(=O)c1ccc(-c2n[nH]c3nc(N4CC[C@@H]5[C@H](C4)[C@@]5(CN)c4ccccc4F)cnc23)c(Cl)c1 [Example 356, 4-(6-((1S,6R,7R)-7-(aminomethyl)-7-(2-fluorophenyl)-3-azabicyclo[4.1.0]heptan-3-yl)-1H-pyrazolo[3,4-b]pyrazin-3-yl)-3-chloro-N-cyano-N-methylbenzamide] |
| < 0.5 µM | < 1 µM | CC(=O)Oc1c(F)cc(-c2n[nH]c3nc(N4CC[C@@H]5[C@H](C4)[C@@]5(CN)c4ccccc4F)cnc23)cc1F [Example 359, 4-(6-((1S,6R,7R)-7-(aminomethyl)-7-(2-fluorophenyl)-3-azabicyclo[4.1.0]heptan-3-yl)-1H-pyrazolo[3,4-b]pyrazin-3-yl)-2,6-difluorophenyl acetate] |
| < 0.5 µM | < 1 µM | NC[C@]1(c2ccccc2F)[C@@H]2CCN(c3cnc4c(-c5ccc(O)c(C(F)(F)F)c5)n[nH]c4n3)C[C@@H]21 [Example 360, 4-(6-((1S,6R,7R)-7-(aminomethyl)-7-(2-fluorophenyl)-3-azabicyclo[4.1.0]heptan-3-yl)-1H-pyrazolo[3,4-b]pyrazin-3-yl)-2-(trifluoromethyl)phenol] |
| < 0.5 µM | < 1 µM | NC[C@]1(c2ccccc2F)[C@@H]2CCN(c3cnc4c(-c5ccc6nn(CC(F)(F)F)cc6c5Cl)n[nH]c4n3)C[C@@H]21 [Example 361, ((1S,6R,7R)-3-(3-(4-chloro-2-(2,2,2-trifluoroethyl)-2H-indazol-5-yl)-1H-pyrazolo[3,4-b]pyrazin-6-yl)-7-(2-fluorophenyl)-3-azabicyclo[4.1.0]heptan-7-yl)methanamine] |
| < 0.5 µM | < 1 µM | CN1C(=O)C(F)(F)c2c1ccc(-c1n[nH]c3nc(N4CC[C@@H]5[C@H](C4)[C@@]5(CN)c4ccccc4F)cnc13)c2Cl [Example 362, 5-(6-((1S,6R,7R)-7-(aminomethyl)-7-(2-fluorophenyl)-3-azabicyclo[4.1.0]heptan-3-yl)-1H-pyrazolo[3,4-b]pyrazin-3-yl)-4-chloro-3,3-difluoro-1-methylindolin-2-one] |
| < 0.5 µM | < 1 µM | Cn1cc2ccc(-c3n[nH]c4nc(N5CC[C@@H]6[C@H](C5)[C@@]6(CN)c5ccccc5F)cnc34)c(Cl)c2n1 [Example 363, ((1S,6R,7R)-3-(3-(7-chloro-2-methyl-2H-indazol-6-yl)-1H-pyrazolo[3,4-b]pyrazin-6-yl)-7-(2-fluorophenyl)-3-azabicyclo[4.1.0]heptan-7-yl)methanamine] |
| < 0.5 µM | < 1 µM | Cn1ncc2ccc(-c3n[nH]c4nc(N5CC[C@@H]6[C@H](C5)[C@@]6(CN)c5ccccc5F)cnc34)c(Cl)c21 [Example 364, ((1S,6R,7R)-3-(3-(7-chloro-1-methyl-1H-indazol-6-yl)-1H-pyrazolo[3,4-b]pyrazin-6-yl)-7-(2-fluorophenyl)-3-azabicyclo[4.1.0]heptan-7-yl)methanamine] |
| < 0.5 µM | < 1 µM | NC[C@]1(c2ccccc2F)[C@@H]2CCN(c3cnc4c(-c5ccc(C(N)=O)cc5F)n[nH]c4n3)C[C@@H]21 [Example 367, 4-(6-((1S,6R,7R)-7-(aminomethyl)-7-(2-fluorophenyl)-3-azabicyclo[4.1.0]heptan-3-yl)-1H-pyrazolo[3,4-b]pyrazin-3-yl)-3-fluorobenzamide] |
| < 0.5 µM | < 1 µM | Cc1nc(N)ccc1-c1n[nH]c2nc(N3CC[C@@H]4[C@H](C3)[C@@]4(CN)c3ccccc3F)cnc12 [Example 368, 5-(6-((1S,6R,7R)-7-(aminomethyl)-7-(2-fluorophenyl)-3-azabicyclo[4.1.0]heptan-3-yl)-1H-pyrazolo[3,4-b]pyrazin-3-yl)-6-methylpyridin-2-amine] |
| < 0.5 µM | < 1 µM | Cn1cc2c(Cl)c(-c3n[nH]c4nc(N5CC[C@@H]6[C@H](C5)[C@@]6(CN)c5cc(F)ccc5F)cnc34)ccc2n1 [Example 369, ((1S,6R,7R)-3-(3-(4-chloro-2-methyl-2H-indazol-5-yl)-1H-pyrazolo[3,4-b]pyrazin-6-yl)-7-(2,5-difluorophenyl)-3-azabicyclo[4.1.0]heptan-7-yl)methanamine] |
| < 0.5 µM | < 1 µM | NC[C@]1(c2ccccc2F)[C@@H]2CCN(c3cnc4c(-c5cc6cc[nH]c(=O)c6cc5Cl)n[nH]c4n3)C[C@@H]21 [Example 370, 6-(6-((1S,6R,7R)-7-(aminomethyl)-7-(2-fluorophenyl)-3-azabicyclo[4.1.0]heptan-3-yl)-1H-pyrazolo[3,4-b]pyrazin-3-yl)-7-chloroisoquinolin-1(2H)-one] |
| > 3 µM | > 5 µM | Cc1nn(C)c(C)c1-c1n[nH]c2nc(N3CC[C@@H]4[C@H](C3)[C@@]4(CN)c3ccccc3F)cnc12 [Example 371, ((1S,6R,7R)-7-(2-fluorophenyl)-3-(3-(1,3,5-trimethyl-1H-pyrazol-4-yl)-1H-pyrazolo[3,4-b]pyrazin-6-yl)-3-azabicyclo[4.1.0]heptan-7-yl)methanamine] |
| < 0.5 µM | < 1 µM | NC[C@]1(c2ccccc2F)[C@@H]2CCN(c3cnc4c(-c5ccc6c(c5)NC(=O)NC6)n[nH]c4n3)C[C@@H]21 [Example 372, 7-(6-((1S,6R,7R)-7-(aminomethyl)-7-(2-fluorophenyl)-3-azabicyclo[4.1.0]heptan-3-yl)-1H-pyrazolo[3,4-b]pyrazin-3-yl)-3,4-dihydroquinazolin-2(1H)-one] |
